Experimental data taken from US20210128511A1, “PRODRUG COMPOSITIONS AND METHODS OF TREATMENT” (AQUESTIVE THERAPEUTICS, INC., priority 2019, published 2021).
Entries after “also recorded” stand apart in the source; their conditions may differ. Each block holds one compound with its values, some of them ahead of it.

What was measured:
[1] = Hydrolysis testing after IV exposure, PK parameters; format: in vivo
Description: Hydrolysis was analyzed after intravenous (IV) administrations. All Groups were tested at the following time intervals: 0 (predose), 2, 5, 10, 12, 15, 17, 20, 25, 30, 40, 60, 90 and 120 minutes and 3 hr, 4 hr, 6 hr and 8 hr post dose.

[2] = Ex vivo permeation study, Franz diffusion cell; format: in vitro ADME, porcine; details: for permeation: ex vivo, compared to L-Dipivefrin
Description: The Franz diffusion cell apparatus consists of two chambers separated by a membrane. The permeation studies were conducted using porcine buccal mucosa obtained from a slaughterhouse. The tissues were dermatomed to typically […] and mounted in vertical Franz diffusion cells maintained at 37° C. The tissue membrane separates the donor compartment containing the drug mixed with the permeation enhancer solution and the receptor compartment containing the collection media whish was selected to provide sink conditions throughout the experiment. The permeation rate was observed over several hours by analysing drug concentration in the receptor medium.
In one example, a permeation procedure is conducted as follows. A temperature bath is set to 37° C., and receiver media is placed in a water bath to adjust the temperature and begin degassing. A Franz diffusion cell is obtained and prepared. The Franz diffusion cell includes a donor compound, a donor chamber, a membrane, sampling port, receptor chamber, stir bar, and a heater/circulator. A stir bar is inserted into a Franz diffusion cell. Tissue is placed over the Franz diffusion cell, and it is ensured that the tissue covers the entire area with an overlap onto a glass joint. The top of a diffusion cell is placed over the tissue, and the top of the cell is clamped to the bottom. About 5 mL of receptor media is loaded into the receiver area to ensure that no air bubbles are trapped in the received portion of the cell. This ensures that all 5 mL can fit into the receiver area. Stirring is begun, and temperature is allowed to equilibrate for about 20 minutes. Meanwhile, High Performance Liquid Chromatography (HPLC) vials are labelled by cell number and time point. One must then check again for air bubbles as the solution will degas during heating.
If testing films, one can perform the following next steps: (1) weigh films, punch to match diffusion area (or smaller), reweigh, record pre- and post-punching weight; (2) wet a donor area with approximately 100 μL of phosphate buffer; (3) place film on a donor surface, top with 400 μL of phosphate buffer, and start timers.
For solution studies, one can perform the following steps: (1) using a micropipette, dispense 500 μL of the solution into each donor cell, start the timers; (2) sample 200 μL at the following time points (time=0 min, 20 min, 40 min, 60 min, 120 min, 180 min, 240 min, 300 min, 360 min), and place in labelled HPLC vials, ensure no air is trapped in the bottom of the vial by tapping the closed vials; (3) replace each sample time with 200 uL of receptor media (to maintain 5 mL); (4) When all time points completed, disassemble the cells and dispose of all materials properly.
1. Tissue is freshly excised and shipped (e.g. overnight) at 4° C. 2. The tissue is processed and frozen at −20° C. for up to three weeks prior to use. 3. The tissue is dermatomed to precise thickness. 4. Approximately 5 mL of receiving media is added to the receiving compartment. The media is selected to ensure sink conditions. 5. The tissue is placed in a Franz diffusion cell, which includes a donor compound, a donor chamber, a membrane, sampling port, receptor chamber, stir bar, and a heater/circulator. 6. Approximately 0.5 mL of donor solution is applied or 8 mm circular film and wetted with 500 μL PBS buffer. 7. Samples are taken from the receiving chamber at given intervals and replaced with fresh media.

[3] = In vitro human whole blood hydrolysis assay; details: for hydrolysis in human whole blood compared to L-Dipivefrin: 1 μM, 37° C., up to 6 hours, epinephrine in plasma by LC-MS/MS
Description: Fresh healthy human whole blood was collected in blood collection tubes and preincubated for 30 min at 37° C.
Using human whole blood in vitro, epinephrine levels in plasma was measured. Whole blood was collected from 2 donors. Compounds were incubated at 1 μM conc with Stabilizer. Plasma was separated after stopping the enzyme reaction at different timepoints. Samples were extracted and analyzed by LC-MS method.

[4] = Intramuscular study in minipig for prodrugs, epinephrine pharmacokinetic profile; format: in vivo, male Yucatan miniature swine; details: epinephrine in plasma, IM 2 mg/animal
Description: Yucatan minipigs (n=4 males per group) were weighed and weights were recorded. The morning of the study, the vascular access port (VAP) of each animal was checked for proper functioning. Minipigs with viable VAP were removed from the home cage and placed in a holding sling. The animals were fasted overnight prior to dose administration and for the duration of PK blood collections.
All the formulations were prepared fresh on the day of dosing and maintained on wet ice until dosing. The dose was injected in the rear hind limb. Prior to administering, the plunger of the syringe was aspirated and observed for any blood that may flow into the syringe. If no blood was observed, it was verified that the needle was in proper placement, and the test articles were administered.
At each specified time-point, 6 mL of whole blood was collected into blood collection tubes containing K2EDTA as the anticoagulant and sodium metabisulfite as stabilizer. Sodium metabisulfite was at a concentration of 8.9 mM, pH 3 (60 μL/6 mL of whole blood of the 890 mM stock solution). SigmaFast (600 μL of SigmaFast 1× solution to 6 mL of whole blood) was added immediately to the tubes as the enzyme arresting agent. The tubes were inverted several times for mixing upon addition of SigmaFast solution. […] The resulting plasma was obtained and stored at approximately […]. The analysis of epinephrine was done using LC-MS/MS method.
Applicants sought to identify epinephrine prodrugs with higher permeability and slower hydrolysis after intramuscular (IM) administrations. […] Yucatan minipigs were weighed and in the morning of the study, the vascular access port (VAP) of each animal was checked for proper functioning. Minipigs with viable VAP were removed from the home cage and placed in a holding sling. The animals were fasted overnight prior to dose administration and for the duration of PK blood collections.
The dose was injected in the rear hind limb. […] At each specified time-point, 6 mL of whole blood was collected into blood collection tubes containing anticoagulant and stabilizer. Protease inhibitor cocktail was added and the tubes were inverted several times for mixing. All blood samples were centrifuged and the resulting plasma was analyzed for epinephrine using LC-MS/MS method.

[5] = Effect of sodium fluoride on drug absorption; details: relative to compositions that did not include NaF
Source text: Referring to FIG. 17, the graph indicates the effect of sodium fluoride on drug absorption.

SMILES: CCCC(=O)Oc1ccc(C(O)CNC)cc1OC(=O)CCC (centres unmarked) [AQEP-05]
conversion to epinephrine after IV administration compared to L-Dipivefrin [1]: Rapid conversion | permeation [2]: effective permeation

SMILES: CC(C)OC(=O)N(C)CC(O)c1ccc(O)c(O)c1 (centres unmarked) [AQEP-06]
hydrolysis in human whole blood compared to L-Dipivefrin [3]: did not show any hydrolysis; also recorded: did not show faster hydrolysis

SMILES: CCC(C)(C)C(=O)Oc1ccc(C(O)CNC)cc1OC(=O)C(C)(C)CC (centres unmarked) [AQEP-02]
Cmax and AUC compared among prodrugs [4]: AQEP-04>AQEP-02>AQEP-03>AQEP-01

SMILES: CN(CC(O)c1ccc(O)c(O)c1)C(=O)OC(C)(C)C (centres unmarked) [AQEP-07]
hydrolysis in human whole blood compared to L-Dipivefrin [3]: did not show any hydrolysis; also recorded: did not show faster hydrolysis

SMILES: CNCC(O)c1ccc(OC(=O)N(C)C)c(OC(=O)N(C)C)c1 (centres unmarked) [AQEP-03]
hydrolysis in human whole blood compared to L-Dipivefrin [3]: minimal hydrolysis; also recorded: did not show faster hydrolysis | Cmax and AUC compared among prodrugs [4]: AQEP-04>AQEP-02>AQEP-03>AQEP-01

SMILES: CNCC(O)c1ccc(OC(=O)c2ccccc2)c(OC(=O)c2ccccc2)c1 (centres unmarked) [AQEP-04]
plasma levels of epinephrine converted from prodrug, compared to L-Dipivefrin ([3]; 1 μM in human whole blood in vitro): Rapid conversion and higher levels of epinephrine | hydrolysis in human whole blood compared to L-Dipivefrin [3]: faster hydrolysis | permeation [2]: did not permeate as well; also recorded: did not permeate higher than L-Dipivefrin | Cmax and AUC compared among prodrugs [4]: higher Cmax and AUC compared to Prodrugs 01, 02 and 03 | Cmax and AUC compared to L-Dipivefrin [4]: less

SMILES: CCC(=O)Oc1ccc(C(O)CNC)cc1OC(=O)CC (centres unmarked) [AQEP-10]
permeation [2]: effective permeation

SMILES: CNCC(OC(=O)C(C)(C)C)c1ccc(OC(=O)C(C)(C)C)c(OC(=O)C(C)(C)C)c1 (centres unmarked) [AQEP-01]
Cmax and AUC compared among prodrugs [4]: AQEP-04>AQEP-02>AQEP-03>AQEP-01

The remaining lines, values ahead:

hydrolysis in human whole blood compared to L-Dipivefrin [3]: faster hydrolysis | permeation [2]: effective permeation | ex vivo permeation of film formulations with varying polysaccharide content ([2]; formulations containing pullulan, compared to L-dipivefrin): Higher permeation | absorption with addition of NaF to the formulation [5]: increased the absorption
SMILES: CNCC(O)c1ccc(OC(=O)C(C)C)c(OC(=O)C(C)C)c1 (centres unmarked) [AQEP-09]

hydrolysis in human whole blood compared to L-Dipivefrin [3]: faster hydrolysis
SMILES: CCOC(=O)Oc1ccc(C(O)CNC)cc1OC(=O)OCC (centres unmarked) [AQEP-12]

hydrolysis in human whole blood compared to L-Dipivefrin [3]: faster hydrolysis | permeation (flux vs. carbon chain length) ([2]; 5 carbon straight chain): permeation dropped
SMILES: CCCCCC(=O)Oc1ccc(C(O)CNC)cc1OC(=O)CCCCC (centres unmarked) [AQEP-11]

hydrolysis in human whole blood compared to L-Dipivefrin [3]: faster hydrolysis | permeation [2]: effective permeation
SMILES: CCCCC(=O)Oc1ccc(C(O)CNC)cc1OC(=O)CCCC (centres unmarked) [AQEP-08]
